From patent publication US20070116831A1, “Dental Composition with High-Potency Sweetener” (THE COCA-COLA COMPANY, priority 2005, published 2007) come the findings set out here.

The series can be described thus: Rate of dissolution in H2O at 25° C. of rebaudioside A polymorph and amorphous forms. Format: physicochemical. To be noted: within 60 minutes. The source says: The purification of rebaudioside A by crystallization as described above results in the formation of at least three different polymorphs: Form 1: a rebaudioside A hydrate; Form 2: an anhydrous rebaudioside A; and Form 3: a rebaudioside A solvate. In addition to the at least three polymorph forms of rebaudioside A, the purification of rebaudioside A may result in the formation of an amorphous form of rebaudioside A, Form 4. The aqueous organic solution and temperature of the purification process influence the resulting polymorph and amorphous forms in the substantially pure rebaudioside A composition. FIGS. 1-5 are exemplary powder x-ray diffraction (XRPD) scans of the polymorph and amorphous forms Form 1 (hydrate), Form 2 (anhydrate), Form 3A (methanol solvate), Form 3B (ethanol solvate), and Form 4 (amorphous), respectively.

rebaudioside A [Form 1]: the “Rate of dissolution in H2O at 25° C.” value is given as “Very low (<0.2%/ %/60 minutes”.
